Assay results reported in ChEMBL document CHEMBL1143223, “Synthesis and in vitro activity of 1-(2,3-dichlorophenyl)-N-(pyridin-3-ylmethyl)-1H-1,2,4-triazol-5-amine and 4-(2,3-dichlorophenyl)-N-(pyridin-3-ylmethyl)-4H-1,2,4-triazol-3-amine P2X7 antagonists” (Bioorg Med Chem Lett, 2008).

What was measured:
P2X purinoceptor 7 [1] = biological target: T1, P2X purinoceptor 7 (Homo sapiens, UniProt Q99572); assay: Antagonist activity at human recombinant P2X7 receptor assessed as inhibition of BzATP-induced calcium flux by FLIPR assay; type: functional
T1 sequence (Q99572 whole entry): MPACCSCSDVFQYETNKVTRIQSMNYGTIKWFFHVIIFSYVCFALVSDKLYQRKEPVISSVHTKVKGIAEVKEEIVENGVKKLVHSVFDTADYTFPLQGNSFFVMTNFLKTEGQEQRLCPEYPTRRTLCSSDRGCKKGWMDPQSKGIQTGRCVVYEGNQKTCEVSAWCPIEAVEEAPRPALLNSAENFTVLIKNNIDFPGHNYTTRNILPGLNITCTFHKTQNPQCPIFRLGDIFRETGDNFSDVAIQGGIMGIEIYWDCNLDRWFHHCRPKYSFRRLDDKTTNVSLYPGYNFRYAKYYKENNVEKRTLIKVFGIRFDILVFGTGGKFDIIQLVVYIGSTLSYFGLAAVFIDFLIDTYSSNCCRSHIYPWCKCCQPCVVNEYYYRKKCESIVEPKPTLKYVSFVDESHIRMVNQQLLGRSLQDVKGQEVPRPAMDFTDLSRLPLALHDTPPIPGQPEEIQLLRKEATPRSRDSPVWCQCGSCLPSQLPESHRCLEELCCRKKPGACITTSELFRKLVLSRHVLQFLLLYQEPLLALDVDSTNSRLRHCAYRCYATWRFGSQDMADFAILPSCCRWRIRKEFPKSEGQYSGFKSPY

P2X purinoceptor 7 [2] = biological target: T2, P2X purinoceptor 7 (Rattus norvegicus, UniProt Q64663); assay: Antagonist activity at rat recombinant P2X7 receptor assessed as inhibition of BzATP-induced calcium flux by FLIPR assay; type: functional
T2 sequence (Q64663 whole entry): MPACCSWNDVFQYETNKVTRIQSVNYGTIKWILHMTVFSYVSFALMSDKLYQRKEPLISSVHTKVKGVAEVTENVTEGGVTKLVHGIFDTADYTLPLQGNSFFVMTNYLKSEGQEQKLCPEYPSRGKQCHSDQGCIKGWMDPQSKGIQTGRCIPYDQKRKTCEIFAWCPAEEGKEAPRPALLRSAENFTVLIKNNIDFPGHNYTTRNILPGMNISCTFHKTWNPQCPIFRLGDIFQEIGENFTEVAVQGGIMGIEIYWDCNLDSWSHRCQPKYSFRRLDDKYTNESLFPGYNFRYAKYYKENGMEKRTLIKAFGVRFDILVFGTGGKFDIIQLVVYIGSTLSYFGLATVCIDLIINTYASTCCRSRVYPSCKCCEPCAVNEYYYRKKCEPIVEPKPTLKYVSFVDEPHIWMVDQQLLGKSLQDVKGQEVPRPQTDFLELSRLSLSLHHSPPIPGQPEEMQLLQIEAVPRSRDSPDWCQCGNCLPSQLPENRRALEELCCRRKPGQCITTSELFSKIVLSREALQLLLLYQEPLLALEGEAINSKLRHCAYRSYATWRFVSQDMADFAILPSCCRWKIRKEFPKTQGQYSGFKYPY

IC50 (P2X purinoceptor 7 [1]) | IC50 (P2X purinoceptor 7 [2]) | SMILES
102 nM | 2040 nM | COc1ccccc1Nc1ncnn1-c1cccc(Cl)c1Cl
> 10000 nM | > 10000 nM | Clc1cccc(-n2ncnc2NCc2ccncc2)c1Cl
28.8 nM | 178 nM | Cc1ncccc1CNc1nncn1-c1cccc(Cl)c1Cl
13.8 nM | 129 nM | Clc1cccc(-n2ncnc2NCc2cccnc2Oc2cccnc2)c1Cl
3390 nM | 4900 nM | Clc1cccc(-n2ncnc2Nc2ccccc2N2CCOCC2)c1Cl
67.6 nM | – | CC(C)N1CCCN(c2ncccc2CNc2nncn2-c2cccc(Cl)c2Cl)CC1
17.8 nM | 240 nM | Cc1ccccc1Nc1ncnn1-c1cccc(Cl)c1Cl
30.9 nM | 135 nM | COc1cccc(CNc2ncnn2-c2cccc(Cl)c2Cl)c1OC
46.8 nM | 158 nM | Clc1cccc(-n2ncnc2NCc2ccccc2Oc2cccnc2)c1Cl
9.12 nM | 25.7 nM | Clc1cccc(-n2ncnc2NCc2cccnc2N2CCC2)c1Cl
39.8 nM | 45.7 nM | Cc1nnc(NCc2cccnc2-c2ccsc2)n1-c1cccc(Cl)c1Cl
57.5 nM | 708 nM | COc1ccccc1CNc1ncnn1-c1cccc(Cl)c1Cl
1860 nM | 11000 nM | CCOc1ccccc1Nc1ncnn1-c1cccc(Cl)c1Cl
20 nM | 39.8 nM | CS(=O)(=O)c1ccccc1CNc1ncnn1-c1cccc(Cl)c1Cl
288 nM | 1380 nM | COc1cccc(CNc2ncnn2-c2cccc(Cl)c2Cl)c1
355 nM | 1120 nM | Clc1cccc(-n2cnnc2NCc2cccnc2)c1Cl
617 nM | 5500 nM | FC(F)(F)Oc1ccccc1Nc1ncnn1-c1cccc(Cl)c1Cl
28.2 nM | 214 nM | Clc1cccc(-n2ncnc2NCc2cccnc2N2CCOCC2)c1Cl

Continued, compound first:

SMILES | IC50 (P2X purinoceptor 7 [1]) | IC50 (P2X purinoceptor 7 [2])
Clc1cccc(-n2cnnc2NCc2cccnc2Oc2cccnc2)c1Cl | 30.9 nM | 35.5 nM
CCOc1ccccc1CNc1ncnn1-c1cccc(Cl)c1Cl | 45.7 nM | 490 nM
Clc1cccc(-n2ncnc2NCc2cccnc2N2CCCC2)c1Cl | 12.6 nM | 28.2 nM
Clc1cccc(-n2ncnc2NCc2cccnc2-c2ccsc2)c1Cl | 15.1 nM | 138 nM
Clc1cccc(-n2ncnc2Nc2ccccc2)c1Cl | 363 nM | 3890 nM
Clc1cccc(-n2ncnc2NCc2cccnc2)c1Cl | 117 nM | 1320 nM
NC(=O)CN1CCCN(c2ncccc2CNc2nncn2-c2cccc(Cl)c2Cl)CC1 | 32.4 nM | –
CCc1ccccc1Nc1ncnn1-c1cccc(Cl)c1Cl | 45.7 nM | 288 nM
Clc1cccc(-n2cnnc2NCc2cccnc2N2CCCC2)c1Cl | 14.8 nM | 12 nM
Cc1cccc(CNc2ncnn2-c2cccc(Cl)c2Cl)c1 | 155 nM | 1020 nM
Cc1ccc(CNc2ncnn2-c2cccc(Cl)c2Cl)cc1 | 479 nM | 7080 nM
Clc1cccc(-n2ncnc2NCc2ccccc2)c1Cl | 47.9 nM | 209 nM
Cc1cccc(CNc2ncnn2-c2cccc(Cl)c2Cl)c1C | 67.6 nM | 631 nM
Clc1cccc(-c2nnnn2Cc2cccnc2)c1Cl | 123 nM | 309 nM
Clc1cccc(-n2cnnc2NCc2cccnc2-c2ccsc2)c1Cl | 11 nM | 36.3 nM
Cc1ccccc1CNc1ncnn1-c1cccc(Cl)c1Cl | 20.9 nM | 200 nM
CSc1ccccc1CNc1ncnn1-c1cccc(Cl)c1Cl | 49 nM | 288 nM
COc1ccc(CNc2ncnn2-c2cccc(Cl)c2Cl)cc1 | 1620 nM | 10500 nM
Cc1ncccc1CNc1ncnn1-c1cccc(Cl)c1Cl | 11.7 nM | 295 nM
